One data set relates to formalin model. Kind of data set: Formalin test in mice (primary in vivo screening and ED50). Further details: species or system ICR male mice. Here is the method: For primary screening, the synthesized compounds were administered to mice via intraperitoneal injection at a dose of 5 mg/kg using the formalin model. The percentage inhibition in the second phase, relative to the vehicle control (DMSO/cremophor EL/distilled water = 10:10:80), was calculated.
Each compound was assessed using four doses (0.1, 1, 5, and 10 mg/kg) by intraperitoneal injection.
ICR male mice weighing 23–25 g was purchased from Samtako Korea (Osan, Republic of Korea). ICR mice were housed four per cage in a room with 12 h light–dark cycles. The temperature and relative humidity of the room were maintained at 22 ± 2 °C and 50 ± 5%, respectively. Food and water were available ad libitum. The procedures for animal testing were approved by Medifron Animal Care and Use Committees (Approval number; Medifron 2019-9). Efforts were made to minimize animal suffering and to reduce the number of animals used.
Mice were randomly assigned to five groups (four per group) and single-dose drugs were administered by intraperitoneal injection. The formalin-induced licking paw test was modified from the method described by Dubuisson and Dennis. Each mouse was acclimated to an acrylic observation chamber for at least 30 min before the injection of formalin. Twenty microliters of 2% formalin were injected subcutaneously into the right side of the hind paw. Each mouse was then placed in an individual clear plastic observational chamber (15 × 15 × 15 cm, volume = […] or 3.375 L), and the pain response was recorded for a period of 30 min. The summation of time (in seconds) spent in licking and biting responses of the injected paw during each 5 min block was measured as an indicator of the pain response. The first period (early phase) was recorded 0–5 min after the injection of formalin, and the second period (late phase) was recorded 20–30 min after the injection. The test compound was administered intraperitoneally 30 min before the formalin injection at […]: 0.1, 1, 5, and 10 mg/kg. The vehicle was DMSO/Cremophor EL/distilled water (10/10/80). The data were expressed as the mean ± standard error of the mean (SEM). Statistical analysis was assessed by one-way analysis of variance (ANOVA) with Bonferroni’s post hoc test. Statistical significance was set at p-value < 0.05, with values of p <0.001 considered highly significant.

Data set [1] concerns the target T1, Transporter, Dopamine (DAT) (Homo sapiens, UniProt Q01959).
T1 construct: host or cells: CHO-S cells
Kind of data set: Radioligand binding, [125I] RTI-55, Eurofins.

The target of another data set is T2, Dopamine D2L (Homo sapiens, UniProt P14416).
T2 construct: host or cells: CHO cells
Kind of data set: Radioligand binding, [3H] Spiperone, Eurofins.

A further data set deals with Serotonin 5-HT2A (Homo sapiens, UniProt P28223). Kind of data set: Radioligand binding, [3H] Ketanserin, Eurofins.
Data set [2] can be described thus: Metabolic stability assay in liver microsomes. Type of data set: in vitro ADME. The note with it: 30 min. Here is the method: In the in vitro metabolic stability study, the stability of compound 29 was evaluated using liver microsomes derived from both mouse and human sources. The primary objectives of this study were to determine the metabolic clearance rate of compound 29 over a defined time period, enabling an assessment of its intrinsic clearance. Microsomal incubations were performed, and the percentage of intact compound remaining was quantified at specific time points. […] The remaining substrate was quantified using the Nexera XR system (Shimadzu, Japan) and TSQ Vantage mass spectrometer (Thermo, Waltham, MA, USA). […] Metabolites were analyzed using the Multiple Reaction Monitoring (MRM) quantification mode in the Xcalibur software (version 4.4). The experiment was performed in duplicate with variability within 15%. Results were calculated as % remaining by comparing the test compound quantified after a 30 min reaction to the initial value at 0 min.
A general note: Liver microsomes are vesicles of endoplasmic reticulum, rich in cytochrome P450 enzymes.

Another data set can be described thus: Cytotoxicity assay (MTT). Type of data set: cell-based. Conditions: mouse, HT-22 hippocampal neuronal cells, HT-22 cells, read-out: cell viability relative to the untreated control group. As for the experimental part: In the in vitro toxicity study, we initially evaluated the cytotoxic potential of compound 29 using a hippocampal neuronal cell line (HT-22), a commonly used model for assessing neurotoxicity. Cell viability was determined after exposure to compound 29 at a concentration of 10 μM.
HT-22 (mouse hippocampal cells) were cultured in Dulbecco’s Modified Eagle’s Medium (DMEM, GIBCO) supplemented with 10% (v/v) fetal bovine serum and antibiotics (100 µg/mL penicillin/streptomycin mix) in a humidified atmosphere at 37 °C with 5% CO2. A total of 5000 HT-22 cells per well were seeded into a clear 96-well plate one day prior to the assay. On the day of the experiment, the medium was removed, and the cells were treated with 25 µL of each compound at a concentration of 10 µM. The plates were incubated at 37 °C for 18 h. Subsequently, 15 µL of 3-[4,5-dimethylthiazol-2-yl]-2,5-diphenyltetrazolium bromide (MTT) solution (5 mg/mL) was added to each well, and the plates were incubated for an additional 3 h. The resulting formazan crystals were dissolved in dimethyl sulfoxide (DMSO), and the absorbance at 570 nm was measured using a microplate reader (Sunrise, TECAN). Optical density (OD) values from each well were normalized by subtracting the vehicle control, and cell viability was calculated by considering the signal from the vehicle control as 100%.

For another data set, the target named is CYP3A4 (Homo sapiens, UniProt P08684). The data set can be described thus: in vitro. Conditions: microsomes, pH 7.4.
A further data set concerns the target CYP2C19 (Homo sapiens, UniProt P33261). Kind of data set: in vitro. Conditions: microsomes, pH 7.4, CYP2C19 % of inhibition.
A further data set addresses hERG (Homo sapiens, UniProt Q12809). The data set can be described thus: biochemical.

Bounds are passed on as bounds.

T1 sequence (Q01959 whole entry): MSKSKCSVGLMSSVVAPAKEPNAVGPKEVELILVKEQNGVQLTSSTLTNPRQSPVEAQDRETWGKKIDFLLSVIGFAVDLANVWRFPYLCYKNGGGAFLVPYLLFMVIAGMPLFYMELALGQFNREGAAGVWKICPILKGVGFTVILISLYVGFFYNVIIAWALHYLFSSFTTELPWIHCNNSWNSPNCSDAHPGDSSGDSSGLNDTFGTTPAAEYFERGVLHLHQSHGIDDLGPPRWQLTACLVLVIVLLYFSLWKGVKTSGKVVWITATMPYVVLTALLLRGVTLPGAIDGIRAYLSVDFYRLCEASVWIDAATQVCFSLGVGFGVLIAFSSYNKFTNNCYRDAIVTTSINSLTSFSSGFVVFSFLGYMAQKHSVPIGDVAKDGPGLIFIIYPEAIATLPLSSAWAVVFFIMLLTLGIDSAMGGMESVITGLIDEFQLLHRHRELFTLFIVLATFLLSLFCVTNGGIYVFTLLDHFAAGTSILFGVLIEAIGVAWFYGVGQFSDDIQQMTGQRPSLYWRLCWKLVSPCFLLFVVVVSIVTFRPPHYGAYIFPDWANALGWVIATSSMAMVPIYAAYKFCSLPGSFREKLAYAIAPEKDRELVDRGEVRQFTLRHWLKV
T2 sequence (P14416 whole entry): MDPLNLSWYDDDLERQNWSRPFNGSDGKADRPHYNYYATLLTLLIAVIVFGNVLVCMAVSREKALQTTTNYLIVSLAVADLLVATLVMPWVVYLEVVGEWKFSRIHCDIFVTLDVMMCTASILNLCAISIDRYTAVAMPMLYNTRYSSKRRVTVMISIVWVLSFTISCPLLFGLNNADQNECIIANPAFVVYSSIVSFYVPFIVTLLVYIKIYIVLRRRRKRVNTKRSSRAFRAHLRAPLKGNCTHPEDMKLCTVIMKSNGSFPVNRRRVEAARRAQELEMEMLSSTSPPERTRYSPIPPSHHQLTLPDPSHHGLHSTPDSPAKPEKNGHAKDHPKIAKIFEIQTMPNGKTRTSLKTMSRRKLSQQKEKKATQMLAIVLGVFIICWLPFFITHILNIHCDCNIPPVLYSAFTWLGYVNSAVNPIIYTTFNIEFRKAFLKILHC
Chain of Serotonin 5-HT2A (P28223 whole entry): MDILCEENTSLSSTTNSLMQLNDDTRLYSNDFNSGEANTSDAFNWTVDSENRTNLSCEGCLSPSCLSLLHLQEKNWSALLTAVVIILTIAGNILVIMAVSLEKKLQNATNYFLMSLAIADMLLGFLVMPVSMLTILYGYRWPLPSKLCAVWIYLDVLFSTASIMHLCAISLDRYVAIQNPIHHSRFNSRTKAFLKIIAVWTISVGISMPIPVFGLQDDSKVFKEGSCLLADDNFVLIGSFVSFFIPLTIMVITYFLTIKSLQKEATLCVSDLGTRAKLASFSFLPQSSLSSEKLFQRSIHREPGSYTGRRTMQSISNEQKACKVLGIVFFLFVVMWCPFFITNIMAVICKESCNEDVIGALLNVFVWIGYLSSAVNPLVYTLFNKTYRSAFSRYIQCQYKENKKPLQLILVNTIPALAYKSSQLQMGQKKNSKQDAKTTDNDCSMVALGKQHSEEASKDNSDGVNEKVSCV
Chain of hERG (Q12809 whole entry): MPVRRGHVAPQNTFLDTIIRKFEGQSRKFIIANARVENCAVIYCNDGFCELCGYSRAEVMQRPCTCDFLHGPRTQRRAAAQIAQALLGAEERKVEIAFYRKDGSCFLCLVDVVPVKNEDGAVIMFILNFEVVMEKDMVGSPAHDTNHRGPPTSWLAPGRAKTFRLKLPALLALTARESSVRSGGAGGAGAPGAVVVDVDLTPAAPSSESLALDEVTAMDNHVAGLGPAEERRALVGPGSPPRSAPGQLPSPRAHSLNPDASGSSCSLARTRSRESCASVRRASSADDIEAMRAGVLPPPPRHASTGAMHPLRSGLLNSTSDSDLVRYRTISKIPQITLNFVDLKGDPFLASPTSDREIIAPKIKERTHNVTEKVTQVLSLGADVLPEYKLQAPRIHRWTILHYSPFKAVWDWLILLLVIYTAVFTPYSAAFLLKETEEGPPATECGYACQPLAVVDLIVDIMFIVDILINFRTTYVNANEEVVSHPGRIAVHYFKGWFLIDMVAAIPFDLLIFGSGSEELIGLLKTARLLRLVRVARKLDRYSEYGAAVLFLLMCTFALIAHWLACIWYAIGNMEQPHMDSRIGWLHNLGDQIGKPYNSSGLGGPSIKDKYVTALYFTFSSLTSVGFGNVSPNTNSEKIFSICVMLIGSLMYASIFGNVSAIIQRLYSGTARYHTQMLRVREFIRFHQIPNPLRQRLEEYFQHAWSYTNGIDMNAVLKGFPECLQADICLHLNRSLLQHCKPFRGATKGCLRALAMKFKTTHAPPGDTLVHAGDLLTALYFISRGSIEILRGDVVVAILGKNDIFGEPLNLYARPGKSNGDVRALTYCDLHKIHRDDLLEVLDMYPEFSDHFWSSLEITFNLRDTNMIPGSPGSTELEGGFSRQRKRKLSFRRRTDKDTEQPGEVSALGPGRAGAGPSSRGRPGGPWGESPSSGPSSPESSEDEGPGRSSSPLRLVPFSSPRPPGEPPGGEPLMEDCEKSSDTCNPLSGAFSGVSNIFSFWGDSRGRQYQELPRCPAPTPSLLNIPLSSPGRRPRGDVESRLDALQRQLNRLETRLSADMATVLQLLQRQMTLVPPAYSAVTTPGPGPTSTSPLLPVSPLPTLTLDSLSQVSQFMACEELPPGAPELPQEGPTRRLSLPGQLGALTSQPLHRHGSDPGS
Chain of CYP2C19 (P33261 whole entry): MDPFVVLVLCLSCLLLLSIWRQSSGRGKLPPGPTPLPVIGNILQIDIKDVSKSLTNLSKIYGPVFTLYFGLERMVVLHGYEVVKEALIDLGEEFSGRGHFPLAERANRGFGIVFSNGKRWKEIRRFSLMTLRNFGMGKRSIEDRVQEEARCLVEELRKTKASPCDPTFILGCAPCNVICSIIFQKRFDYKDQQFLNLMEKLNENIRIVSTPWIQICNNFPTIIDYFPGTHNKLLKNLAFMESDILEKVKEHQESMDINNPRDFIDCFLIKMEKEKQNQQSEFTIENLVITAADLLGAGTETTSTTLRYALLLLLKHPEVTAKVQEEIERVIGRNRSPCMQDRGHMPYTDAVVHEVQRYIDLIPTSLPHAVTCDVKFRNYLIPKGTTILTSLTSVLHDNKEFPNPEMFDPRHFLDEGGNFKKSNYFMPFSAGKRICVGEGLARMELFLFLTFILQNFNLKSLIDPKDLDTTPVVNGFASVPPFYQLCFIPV
Chain of CYP3A4 (P08684 whole entry): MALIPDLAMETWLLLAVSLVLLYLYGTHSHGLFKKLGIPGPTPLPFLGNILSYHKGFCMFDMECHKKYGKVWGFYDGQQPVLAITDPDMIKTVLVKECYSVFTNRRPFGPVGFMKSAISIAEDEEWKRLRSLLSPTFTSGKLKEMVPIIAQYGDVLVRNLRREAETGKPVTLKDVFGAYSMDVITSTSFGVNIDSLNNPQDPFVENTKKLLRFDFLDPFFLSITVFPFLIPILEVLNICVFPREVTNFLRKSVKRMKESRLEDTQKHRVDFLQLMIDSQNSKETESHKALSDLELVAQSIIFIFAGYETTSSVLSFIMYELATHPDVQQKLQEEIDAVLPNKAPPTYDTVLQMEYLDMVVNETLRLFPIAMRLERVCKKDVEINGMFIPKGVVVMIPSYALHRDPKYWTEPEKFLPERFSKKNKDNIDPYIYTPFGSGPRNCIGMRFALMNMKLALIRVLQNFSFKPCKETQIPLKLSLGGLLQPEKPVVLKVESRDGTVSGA

As usually defined, the ED50 is the midpoint of the dose-response relation. Usually Ki stands for the equilibrium dissociation constant of an inhibitor or competing ligand from its target. A lower Ki goes with tighter binding. What is called IC50 is the concentration that inhibits the measured activity by half. A word on the amount remaining: it is what is left of the initial amount, in per cent. Usually viability stands for a read-out of living cells in per cent, often relative to untreated cells. For orientation: inhibition means the drop in the measured response relative to a control, in per cent. High values mean a response far below the control, low ones a response near the control. For `N#Cc1ccc2[nH]cc(C(=O)NCCN3CCN(c4ccc5ccccc5n4)CC3)c2c1` [Compound 29, 5-Cyano-N-(2-(4-(quinolin-2-yl)piperazin-1-yl)ethyl)-1H-indole-3-carboxamide], the ED50 in the data set with formalin model (Mus musculus, ip, read-out: ED50 in the second phase of the formalin model) stood at 0.78 mg/kg. Further, the “activity in the first phase of the formalin model” value in the data set on formalin model (mice, intraperitoneal, first phase) is “relatively weak”. Moreover, the “nH (Hill coefficient)” value in data set [1] (DAT) was determined as 0.88; on Dopamine D2L (Dopamine D2L), 0.86; at Serotonin 5-HT2A (Serotonin 5-HT2A), 0.88. For the same compound, the Ki in data set [1] (DAT, Cheng and Prusoff) was determined as 46 nM; on Dopamine D2L (Dopamine D2L, Cheng and Prusoff), 1850 nM; at Serotonin 5-HT2A (Serotonin 5-HT2A, Cheng and Prusoff), 150 nM. The concentration for half-maximal inhibition (IC50) in [1] (DAT, human recombinant CHO-S cells) is 57 nM; at Dopamine D2L (Dopamine D2L, human recombinant CHO cells), 5540 nM; on Serotonin 5-HT2A (Serotonin 5-HT2A, human recombinant CHO-Ki cells), 520 nM; at hERG, approximately 10000 nM. In addition, in [1] (ratio of Ki values), the “times more potent at DAT compared to vanoxerine” value came out at 19. Moreover, the “times the activity of reference compound spiperone” value at Dopamine D2L (ratio of Ki values) is 0.02. The “times the activity of reference compound ketanserin” value at Serotonin 5-HT2A (ratio of Ki values) is reported as 1.53. The amount remaining at 0.5 h, 1 µM in [2] (pH 7.4, human liver microsomes) came out at 55.6%; in data set [2] (pH 7.4, mouse liver microsomes), 51.2%. Further, the viability at 18 h, 10 µM in “Cytotoxicity assay (MTT)” was more than 100%. In addition, the inhibition at 15 min, 10 µM was 78% at CYP3A4 and less than 50% against CYP2C19.

The values above are taken from article PMC11859264, “Discovery of a Novel Multitarget Analgesic Through an In Vivo-Guided Approach” (Pharmaceuticals, 2025).
